These results are taken from patent US20050070555A1, “Aroyl pyridinones” (Bayer HealthCare AG, priority 2001, published 2005).

Chain of p38 map kinase (Q16539 whole entry): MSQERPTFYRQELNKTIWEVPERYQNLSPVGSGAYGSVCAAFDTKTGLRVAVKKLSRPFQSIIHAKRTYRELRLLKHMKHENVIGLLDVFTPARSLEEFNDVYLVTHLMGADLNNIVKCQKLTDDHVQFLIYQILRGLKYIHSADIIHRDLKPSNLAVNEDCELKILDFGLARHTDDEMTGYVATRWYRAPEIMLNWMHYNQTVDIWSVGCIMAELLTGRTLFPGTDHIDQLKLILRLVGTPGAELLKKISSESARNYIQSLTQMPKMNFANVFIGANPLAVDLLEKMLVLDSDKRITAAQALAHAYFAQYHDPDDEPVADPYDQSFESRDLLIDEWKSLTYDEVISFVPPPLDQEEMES

The assay addresses p38 map kinase (Homo sapiens, UniProt Q16539). The assay can be described thus: P 38 Map Kinase Assay (SPA [33-P] serine/threonine kinase assay). It is filed as biochemical. Conditions: 10 μM ATP, 2.5 μM biotinylated myelin basic protein substrate, 500 ng/well enzyme, 90 min, 30° C. The text has this:
The assay makes use of the serine/theonine protein kinase SPA [33-P]+assay kit from Amersham Phamacia Biotech. The assay is a homogeneous technique using SPA technology for the quantification of serine threonine kinase activity.
It is based on the p38 map kinase catalysed transfer of the γ-phosphate group of the [γ-^33P] […] to the substrate, biotinylated myelin basic protein (MBP). The resulting [^33P]-labelled biotinylated product is trapped on a PVT SPA bead containing scintillant which has been surface coated with streptavidin.
The beads are allowed to settle to eliminate high background, and therefore only ^33P labelled product attached to the SPA bead is detected.
The assay is carried out in the presence and absence of test compounds to determine their effect on p38 map kinase activity.
A test protocol is as follows:
• 1. SPA assay kit (Amersham). Components: • Assay buffer (store frozen) • Stop solution (store frozen). • Streptavidin coated SPA beads—reconstitute with 5 mls of PBS. (50 mg/ml). (Store in fridge) • 2. p 38 map kinase enzyme SCRD (500 μg/ml)—aliquoted in 1.5 mls. • dilute 1:10 to 50 μg/ml • 1 plate—110 μl (stock 500 μg/ml)+990 μl PBS. • 3. Assay reagent: • for 1 plate: 504 μl Assay buffer (500 Mm MOPS pH 7.2, 10 μM ATP, 50 mM MgCl2, 25 μM biotinylated myelin basic protein (MBP)). • 2513.4 μl Water • 1.1 μl 33-p-ATP (10 μCi/ul) (on activity date/adjust for activity date) • 4.534 μl×10^-2M ATP in water • 4. Stop solution: • for 1 plate: 265.92 μl streptavidin coated beads (50 mg/ml) • 1651.684 μl stop buffer (500 μM ATP, 50 mM EDTA 1% Triton X-100) • 7084.32 μl PBS. • 1. Add 10 μl compound Dilutons (5× final conc) Test wells. • 2. Add 10 μl 12.5% DMSO to control/blank wells. • 3. Add 10 μl enzyme (50 μg/ml) final conc 500 ng/well • 4. Add 10 μl PBS to blank wells. • 5. Add 30 μl of assay reagent to each well. (final conc 10 μM ATP, 2.5 μM substrate) • 6. Mix well on plate shaker. • 7. Incubate 90 min (30° C.) • 8. Add 75 μl of stop solution to each well (final conc 55 μM ATP) • 9. Spin plate: −3 min/1600 rpm/20° C. (alternatively leave to settle overnight) • 10. Read in Microbeta, Protocol SPA paralux 3.
What is called IC50 is the concentration at which inhibition is half-maximal. A lower IC50 goes with higher potency. In the case of `O=C(c1ccc(F)cc1F)c1ccc(=O)n2c1N[C@@H]1CCCC[C@@H]12` (racemic) [Example 1, (Rac-cis-5a,9a)-4-(2,4-difluorobenzoyl)-5a,6,7,8,9,9a-hexahydropyrido[1,2-a]benzimidazol-1(5H)-one], half-maximal inhibition (IC50) was put at 340 nM.

`O=C(c1ccccc1)c1ccc(=O)n2c1N[C@@H]1CCCC[C@@H]12` (racemic) [Example 3, (Rac-cis-5a,9a)-4-benzoyl-5a,6,7,8,9,9a-hexahydropyrido[1,2-a]benzimidazol-1(5H)-one] showed an IC50 of 455 nM.

As to `O=C(c1cccc(Cl)c1)c1ccc(=O)n2c1N[C@@H]1CCCC[C@@H]12` (racemic) [Example 9, (Rac-cis-5a,9a)-4-(3-chlorobenzoyl)-5a,6,7,8,9,9a-hexahydropyrido[1,2-a]benzimidazol-1(5H)-one], half-maximal inhibition (IC50) was put at 228 nM.

For `O=C(c1ccc(F)cc1F)c1ccc(=O)n2c1N[C@H]1CCCC[C@@H]12` [Example 2-1, (5aS,9aS)-4-(2,4-difluorobenzoyl)-5a,6,7,8,9,9a-hexahydropyrido[1,2-a]benzimidazol-1(5H)-one], the IC50 amounted to 164 nM.

`CC1(C)Cn2c(c(C(=O)c3ccc(Cl)cc3)ccc2=O)N1` [Example 21] registered an IC50 of 1800 nM.

Compound `CC1(C)CNc2c(C(=O)c3ccc(F)cc3)ccc(=O)n2C1` [Example 24, 9-(4-Fluorobenzoyl)-3,3-dimethyl-1,2,3,4-tetrahydro-6H-pyrido[1,2-a]pyrimidin-6-one] had a concentration for half-maximal inhibition (IC50) of 386 nM.
